We go through five molecules from patent US8143374B2, “Polypeptide derivatives of parathyroid hormone (PTH)” (The General Hospital Corporation, priority 2006, dated 2012).

Series [1] is described as follows: Circular dichroism spectroscopy, helical residues per peptide chain. In kind it is physicochemical. The settings on record: [Ala1,Arg19]hPTH(1-31)NH2 analogs; calculated from [θ]222. The procedure:
Circular Dichroism—CD spectra were obtained on a JASCO J-600 spectropolarimeter at 20° C. Four spectra were averaged and the data smoothed by the JASCO software. The instrument was calibrated with ammonium (+)-10-camphorsulfonate. Peptide concentrations were verified from the absorption at 280 nm, using an extinction coefficient of 5700 M^−1 for the single tryptophan. Data are expressed as the number of helical residues per peptide chain, as calculated from −[θ]222×30/28,000, where [θ]222 is the mean residue elipticity ([θ]) at 222 nm, as was described previously (Barbier, J. R., et al. (2005) J Biol Chem. 280:23771-23777).

Series [2] addresses T1, PTHR-delNt (Homo sapiens, UniProt Q03431, DEL24-181).
T1 construct: expressed in transfected cells; host or cells: COS-7 cells, transient co-transfection; membranes prepared
T1 sequence (Q03431 with tags, fused parts or gaps DEL24-181): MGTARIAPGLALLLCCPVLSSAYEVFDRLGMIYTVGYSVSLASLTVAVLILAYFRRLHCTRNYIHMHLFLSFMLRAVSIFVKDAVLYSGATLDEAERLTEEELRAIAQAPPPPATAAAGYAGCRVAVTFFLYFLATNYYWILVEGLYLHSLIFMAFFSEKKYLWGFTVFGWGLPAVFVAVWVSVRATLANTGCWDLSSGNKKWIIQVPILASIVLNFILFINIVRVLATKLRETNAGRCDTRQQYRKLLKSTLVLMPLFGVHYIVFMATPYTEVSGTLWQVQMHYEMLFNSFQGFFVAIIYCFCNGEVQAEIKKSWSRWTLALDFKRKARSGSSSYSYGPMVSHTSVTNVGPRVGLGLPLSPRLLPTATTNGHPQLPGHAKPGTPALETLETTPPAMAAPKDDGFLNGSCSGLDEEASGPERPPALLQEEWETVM
Kind of series: Competition binding in COS-7 cell membranes with 125I-[Aib1,3,M]PTH(1-15)NH2 tracer. The settings on record: for IC50: [Ala1,Arg19]hPTH(1-31)NH2 analogs, COS-7 membranes cotransfected with negative-dominant Gαs, read-out: PTHR-delNT (COS-7) IC50; for effect on binding to PTHR-delNt (in words) / reduction (alteration) of binding affinity for PTHR-delNt relative to parent peptide: COS-7 membranes; for reduction (alteration) of binding affinity for PTHR-delNt relative to parent peptide: versus the respective parent peptide. How it is done:
PTHR-delNt is a derivative of the human PTHR that is deleted for most (Ala^24-Arg^181) of the amino-terminal extracellular domain (Shimizu, M., et al. (2001) Endocrinology 142:3068-3074). This PTHR construct was expressed in COS-7 cells via transient DNA transfection. For cAMP assays, the cells were transfected in 24-well plates using 0.2 μg of plasmid DNA and 0.6 μl of Fugene-6 reagent (Roche Diagnostics, Indianapolis Ind.) per well, and assays were performed on the intact cells three to four days after transfection. For binding assays, cell membranes were prepared from transfected COS-7 cells. To increase the maximal binding of ^125I-[Aib^1,3,M]PTH(1-15)NH2 to PTHR-delNt in these membranes, the cells were cotransfected with a negative dominant mutant Gαs protein (Gαs^ND). This mutant Gαs subunit is thought to couple to cognate receptors, and thus stabilize high affinity receptor conformations, more efficiently than does wild-type Gαs, without increasing basal cAMP levels (Berlot, C. H. (2002) J Biol Chem 277:21080-5). A precursor of this mutant Gαs, Gαs(α3β5), was recently used to increase binding of ^125I-[Aib^1,3,M]PTH(1-15)NH2 to PTHR-delNt in COS-7 cell membranes (Dean, T., (2006) Mol Endocrinol 20:931-942). Gαs^ND, which contains the same five amino acid replacement of corresponding Gαi residues in the α3β5 loop as Gαs(α3β5), plus the point mutations of Gly^226 to Ala, which increases affinity for Gβ/γ, and Ala^366 to Ser, which decreases affinity for GDP, yields approximately two-fold higher levels of specific binding of ^125I-[Aib^1,3,M]PTH(1-15)NH2 than does Gαs(α3β5) (data not shown). For the current membrane preparations, COS-7 cells were co-transfected in six-well plates using 1 μg of each plasmid DNA encoding PTHR-delNt and Gαs^ND, and 6 μl of Fugene-6 reagent (Roche Diagnostics, Indianapolis Ind.) per well. Cells were harvested three days after transfection, and membranes were prepared as described (Dean, T., et al. (2006) Mol Endocrinol 20:931-942).
Receptor binding—Binding to the wild-type human PTHR in intact HKRK-B7 cells and ROS 17/2.8 cells was assessed using ^125I-PTH(1-34) as a tracer radioligand, as described (Shimizu, M., (2001) Endocrinology 142:3068-3074). In brief, the cells in 24-well plates (about 500,000 cells per well) were incubated in binding buffer containing radioligand (about 100,000 cpm per well) with or without unlabeled peptide ligand (3×10^−9 to 1×10^−5 M) for four hours at 15° C. The binding mixture was then removed by aspiration, the cells were rinsed three times with binding buffer, lysed in 1 M NaOH, and the entire lysate was counted for gamma-irradiation in a gamma counter. Binding to PTHR-delNt in COS-7 cell membranes was assessed in 96-well, vacuum filtration plates (Multiscreen-Durapore HV, […] membranes, Millipore Corp., Millford, Mass.) using ^125I-[Aib^1,3,M]PTH(1-15)NH2 as a tracer radioligand, as described (Dean, T., (2006) Mol Endocrinol 20:931-942). In brief, cell membranes (20 μg/well) were incubated in membrane binding buffer containing radioligand (30,000 cpm/well) with or without unlabeled peptide ligand (3×10^−9 to 1×10^−5 M) for 90 minutes at 21° C. The plates were then subject to rapid vacuum filtration, the filters were washed once with buffer, detached from the plate and counted for gamma-irradiation in a gamma counter. Non-specific binding was defined as the binding observed in the presence of 1×10^−6 M PTH(1-31)NH2 for HKRK-B7 and ROS 17/2.8 cells, and 1×10^−6 M [Aib^1,3,M]PTH(1-15)NH2 for PTHR-delNt. Specifically bound radioactivity was calculated as a percentage of the radioactivity specifically bound in the absence of competing ligand. […]

Where a SMILES comes first, the peptide text is derived from it. Where no end group is shown, it is not given here. [ ]: non-standard residue; d: D form. Cha = N[C@@H](CC1CCCCC1)C(=O)O

The IC50 is the concentration needed to halve the response being measured.

Take `CC[C@H](C)[C@H](NC(=O)[C@H](CCC(=O)O)NC(=O)[C@H](CO)NC(=O)[C@@H](NC(=O)[C@H](C)N)C(C)C)C(=O)N[C@@H](CCC(N)=O)C(=O)N[C@@H](CC(C)C)C(=O)N[C@@H](CCSC)C(=O)N[C@@H](Cc1c[nH]cn1)C(=O)N[C@@H](CC(N)=O)C(=O)N[C@@H](CC(C)C)C(=O)NCC(=O)N[C@@H](CCCCN)C(=O)N[C@@H](Cc1c[nH]cn1)C(=O)N[C@@H](CC(C)C)C(=O)N[C@@H](CC(N)=O)C(=O)N[C@@H](CO)C(=O)N[C@@H](CCSC)C(=O)N[C@@H](CCCNC(=N)N)C(=O)N[C@@H](CCCNC(=N)N)C(=O)N[C@H](C(=O)N[C@@H](CC1CCCCC1)C(=O)N[C@@H](Cc1c[nH]c2ccccc12)C(=O)N[C@@H](CC(C)C)C(=O)N[C@@H](CCCNC(=N)N)C(=O)N[C@@H](CCCCN)C(=O)N[C@@H](CCCCN)C(=O)N[C@@H](CC(C)C)C(=O)N[C@@H](CCC(N)=O)C(=O)N[C@@H](CC(=O)O)C(=O)N[C@H](C(N)=O)C(C)C)C(C)C` [Glu^22→Cha] (H-AVSEIQLMHNLGKHLNSMRRV[Cha]WLRKKLQDV-NH2; N-terminus assumed): in series [1], the CD helical residues was 8. Further, the IC50 in series [2] stood at 126 ± 45 nM.
Turning to `CC[C@H](C)[C@H](NC(=O)[C@H](CCC(=O)O)NC(=O)[C@H](CO)NC(=O)[C@@H](NC(=O)[C@H](C)N)C(C)C)C(=O)N[C@@H](CCC(N)=O)C(=O)N[C@@H](CC(C)C)C(=O)N[C@@H](CCSC)C(=O)N[C@@H](Cc1c[nH]cn1)C(=O)N[C@@H](CC(N)=O)C(=O)N[C@@H](CC(C)C)C(=O)NCC(=O)N[C@@H](CCCCN)C(=O)N[C@@H](Cc1c[nH]cn1)C(=O)N[C@@H](CC(C)C)C(=O)N[C@@H](CC(N)=O)C(=O)N[C@@H](CO)C(=O)N[C@@H](CCSC)C(=O)N[C@@H](CCCNC(=N)N)C(=O)N[C@@H](CCCNC(=N)N)C(=O)N[C@H](C(=O)N[C@@H](CCC(=O)O)C(=O)N[C@@H](Cc1c[nH]c2ccccc12)C(=O)N[C@@H](CC1CCCCC1)C(=O)N[C@@H](CCCNC(=N)N)C(=O)N[C@@H](CCCCN)C(=O)N[C@@H](CCCCN)C(=O)N[C@@H](CC(C)C)C(=O)N[C@@H](CCC(N)=O)C(=O)N[C@@H](CC(=O)O)C(=O)N[C@H](C(N)=O)C(C)C)C(C)C` [Leu^24→Cha] (H-AVSEIQLMHNLGKHLNSMRRVEW[Cha]RKKLQDV-NH2; N-terminus assumed), the CD helical residues in series [1] is listed as 9. In addition, in series [2], the “effect on binding to PTHR-delNt (in words)” value is given as “little or no effect on binding to PTHR-delNt”, the “reduction (alteration) of binding affinity for PTHR-delNt relative to parent peptide” value is “three-fold or less” and the IC50 stood at 283 ± 68 nM.
Turning to `CC[C@H](C)[C@H](NC(=O)[C@H](CCC(=O)O)NC(=O)[C@H](CO)NC(=O)[C@@H](NC(=O)[C@H](C)N)C(C)C)C(=O)N[C@@H](CCC(N)=O)C(=O)N[C@@H](CC(C)C)C(=O)N[C@@H](CCSC)C(=O)N[C@@H](Cc1c[nH]cn1)C(=O)N[C@@H](CC(N)=O)C(=O)N[C@@H](CC(C)C)C(=O)NCC(=O)N[C@@H](CCCCN)C(=O)N[C@@H](Cc1c[nH]cn1)C(=O)N[C@@H](CC(C)C)C(=O)N[C@@H](CC(N)=O)C(=O)N[C@@H](CO)C(=O)N[C@@H](CCSC)C(=O)N[C@@H](CCCNC(=N)N)C(=O)N[C@@H](CCCNC(=N)N)C(=O)N[C@H](C(=O)N[C@@H](CCC(=O)O)C(=O)N[C@@H](CC1CCCCC1)C(=O)N[C@@H](CC(C)C)C(=O)N[C@@H](CCCNC(=N)N)C(=O)N[C@@H](CCCCN)C(=O)N[C@@H](CCCCN)C(=O)N[C@@H](CC(C)C)C(=O)N[C@@H](CCC(N)=O)C(=O)N[C@@H](CC(=O)O)C(=O)N[C@H](C(N)=O)C(C)C)C(C)C` [Trp^23→Cha] (H-AVSEIQLMHNLGKHLNSMRRVE[Cha]LRKKLQDV-NH2; N-terminus assumed), the CD helical residues in series [1] is on record as 8. In series [2], the “effect on binding to PTHR-delNt (in words)” value is “little or no effect on binding to PTHR-delNt”, the “reduction (alteration) of binding affinity for PTHR-delNt relative to parent peptide” value is “three-fold or less” and the IC50 was found to be 867 ± 402 nM.
The like results for “AVSEIQLMHNLGKHLNSMRRVEWLRKKEQDV-NH2 [Leu^28→Glu]” were, in that order, 5, “only mildly impaired binding to PTHR-delNt”, “less than three-fold” and 974 ± 252 nM.
For `CC[C@H](C)[C@H](NC(=O)[C@H](CCC(=O)O)NC(=O)[C@H](CO)NC(=O)[C@@H](NC(=O)[C@H](C)N)C(C)C)C(=O)N[C@@H](CCC(N)=O)C(=O)N[C@@H](CC(C)C)C(=O)N[C@@H](CCSC)C(=O)N[C@@H](Cc1c[nH]cn1)C(=O)N[C@@H](CC(N)=O)C(=O)N[C@@H](CC(C)C)C(=O)NCC(=O)N[C@@H](CCCCN)C(=O)N[C@@H](Cc1c[nH]cn1)C(=O)N[C@@H](CC(C)C)C(=O)N[C@@H](CC(N)=O)C(=O)N[C@@H](CO)C(=O)N[C@@H](CCSC)C(=O)N[C@@H](CCCNC(=N)N)C(=O)N[C@@H](CCCNC(=N)N)C(=O)N[C@@H](CC1CCCCC1)C(=O)N[C@@H](CCC(=O)O)C(=O)N[C@@H](Cc1c[nH]c2ccccc12)C(=O)N[C@@H](CC(C)C)C(=O)N[C@@H](CCCNC(=N)N)C(=O)N[C@@H](CCCCN)C(=O)N[C@@H](CCCCN)C(=O)N[C@@H](CC(C)C)C(=O)N[C@@H](CCC(N)=O)C(=O)N[C@@H](CC(=O)O)C(=O)N[C@H](C(N)=O)C(C)C` [Val^21→Cha] (H-AVSEIQLMHNLGKHLNSMRR[Cha]EWLRKKLQDV-NH2; N-terminus assumed), in series [1], the CD helical residues is given as 9. The IC50 in series [2] is 564 ± 172 nM.
